# Experiments:
# Test in all cases: relative viability (nuclei count vs DMSO), 5 days (fraction); higher = more cells survive
# [1] = compound: CC(C)(C)c1nc(-c2cccc(NS(=O)(=O)c3c(F)cccc3F)c2F)c(-c2ccnc(N)n2)s1 [Dabrafenib] + Cc1nc(NC(=O)N2CCC[C@H]2C(N)=O)sc1-c1ccnc(C(C)(C)C(F)(F)F)c1 [Alpelisib] (partner 2 µM)
# In short: (§1)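 Lung cancer cell lines in 1536-well plates were dosed by pin tool the day after seeding, either with one drug alone or with a fixed anchor-drug dose plus five library-drug doses (not always all listed) in √10 steps. After 5 days, cells were fixed and their nuclei stained in one step (final 0.05% Triton X-100, 1% formaldehyde, 1 ug/ml Hoechst), then counted on 4× images. Relative viability is the nuclei count in treated wells divided by that in vehicle wells. Values are medians of duplicate plates.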
# [2] = compound: NC(=O)c1ccc(N(C(N)=O)c2c(F)cccc2F)nc1-c1ccc(F)cc1F [VX-702] + CC(=O)c1c(C)c2cnc(Nc3ccc(N4CCNCC4)cn3)nc2n(C2CCCC2)c1=O [Palbociclib] (partner 0.5 µM)
# In short: as §1
# [3] = compound: NC(=O)c1ccc(N(C(N)=O)c2c(F)cccc2F)nc1-c1ccc(F)cc1F [VX-702] + NC(=O)Nc1cc(-c2cccc(F)c2)sc1C(=O)N[C@H]1CCCNC1 [AZD7762] (partner 0.2 µM)
# In short: as §1
# [4] = compound: NC(=O)c1ccc(N(C(N)=O)c2c(F)cccc2F)nc1-c1ccc(F)cc1F [VX-702] + CC(C)C[C@H](NC(=O)[C@H](Cc1ccccc1)NC(=O)c1cnccn1)B(O)O [Bortezomib] (partner 0.002 µM)
# In short: as §1
Cell Line,relative viability ([1]; first compound 0.003 µM),relative viability ([1]; first compound 0.009487 µM),relative viability ([1]; first compound 0.03 µM),relative viability ([1]; first compound 0.09487 µM),relative viability ([1]; first compound 0.3 µM),relative viability ([2]; first compound 0.02 µM),relative viability ([2]; first compound 0.2 µM),relative viability ([2]; first compound 0.6325 µM),relative viability ([2]; first compound 2 µM),relative viability ([3]; first compound 0.02 µM),relative viability ([3]; first compound 0.2 µM),relative viability ([3]; first compound 0.6325 µM),relative viability ([3]; first compound 2 µM),relative viability ([4]; first compound 0.02 µM),relative viability ([4]; first compound 0.2 µM),relative viability ([4]; first compound 0.6325 µM),relative viability ([4]; first compound 2 µM)
LCLC-103H,0.726,1.16,0.912,0.853,0.972,0.459,0.498,0.439,0.434,0.76,0.816,0.825,0.873,1.17,0.949,1.05,1.11
LOU-NH91,,0.803,0.652,0.7,0.743,0.554,0.532,0.544,0.536,0.766,0.753,0.721,0.695,0.507,0.502,0.513,0.532
LU99A,0.563,0.439,0.48,0.502,0.515,0.407,0.387,0.389,0.34,0.35,0.372,0.368,0.234,1.09,1.05,1.14,0.934
LXF-289,1.02,1.03,1.02,0.991,1.06,0.616,0.563,0.59,0.616,1.15,1.14,1.15,1.16,1.03,1.03,0.998,1.02
NCI-H23,,0.787,0.554,0.652,0.791,0.492,0.443,0.544,0.559,0.294,0.35,0.305,0.208,1.07,0.892,1.22,1.16
NCI-H322M,,0.829,,0.629,0.85,0.458,0.48,0.489,0.449,0.544,0.558,0.537,0.499,1.22,1.25,1.31,1.18
NCI-H441,,0.915,0.817,0.677,0.692,0.19,0.235,0.204,0.162,1.25,1.08,1.13,1.02,0.641,0.463,0.492,0.575
NCI-H460,0.508,0.599,0.394,0.567,0.592,0.187,0.156,0.21,0.118,0.732,0.585,0.721,0.638,1.14,1.15,1.22,1.17
NCI-H647,,1.09,1.12,0.945,1.03,0.349,0.373,0.378,0.495,0.461,0.386,0.494,0.567,1.14,0.84,1.25,1.41
NCI-H650,,1.09,0.953,0.906,0.706,0.349,0.327,0.326,0.348,0.943,0.894,0.936,1.16,0.802,,1.05,1.07
NCI-H727,,0.757,0.519,0.647,0.638,0.635,0.641,0.613,0.664,0.436,0.526,0.502,0.574,0.657,0.743,0.939,0.976
NCI-H838,1.01,1.07,0.861,0.93,1.15,0.225,0.214,0.198,0.227,0.937,0.912,1.05,0.903,0.857,0.94,0.796,0.937
NCI-H1355,,0.935,0.608,,0.809,0.411,0.424,0.441,0.404,0.867,0.672,0.83,0.813,1.26,1.22,1.27,1.26
NCI-H1437,1.03,1,1.04,1.02,1.06,0.308,0.318,0.319,0.318,1.06,1.16,1.23,1.16,0.592,0.631,0.587,0.595
NCI-H1651,0.994,1.01,0.859,0.935,0.904,0.503,0.494,0.502,0.56,0.474,0.429,0.468,0.455,0.958,0.96,0.95,1.03
NCI-H1666,0.988,,0.962,0.973,1.11,0.683,0.69,0.595,0.526,0.925,0.837,0.922,0.693,0.906,0.672,0.989,0.606
